Assay results published in patent publication US20070044168A1, “Transplantable tumor model” (Northwestern University, priority 2005, published 2007).

Test system: clonal CB1 zebrafish
Assay: Tumor induction by continuous immersion in DEN solution
Assay type: in vivo
Settings: 100 ppm DEN immersion for 8 weeks
Procedure: Tumor induction. Sixty-five 2.5-month-old fish from the clonal CB1 line were used for tumor induction by continuous immersion in N-nitrosodiethylamine (DEN) solution (100 ppm) during the 8 weeks. During DEN, exposure fish were maintained in 20-L acrylic tanks equipped with a mechanical filter and an automatic heater. The filters were cleaned twice weekly. The complete exchange of water containing the carcinogen was done every 2 weeks. The water temperature was maintained at 26±0.5° C. Following completion of DEN exposure the fish were transferred to a 20-L system tank and remained under observation for up to 9 months.
The grossly visible tumors began to emerge in fish 3 to 7 months after the beginning of exposure to DEN. Four spontaneous tumors diagnosed as acinar cell carcinomas of the pancreas were detected in 10.5- to 18-month-old female CB1 fish (See, e.g., FIG. 1G).

SMILES: CCN(CC)N=O [DEN, N-nitrosodiethylamine]
- emergence of grossly visible tumors after the beginning of exposure (CB1 fish): 3 to 7 months
- primary tumors localized in the abdominal area (sixty-five 2.5-month-old CB1 fish, observed up to 9 months): 35
